The target in one assay is human V2 receptor (Homo sapiens (Human), UniProt P30518). Nature of the assay: Cellular in vitro assay for determining vasopressin receptor activity (V2, CRE-luciferase). The format is cell-based. Particulars: CHO cell line transfected with human V2 receptor; [Arg8]-vasopressin at EC50 concentration; read-out: IC50 hV2.
The target in another assay is human V1a receptor (Homo sapiens (Human), UniProt P37288). Nature of the assay: Cellular in vitro assay for determining vasopressin receptor activity (V1a, aequorin luminescence). The format is cell-based. Particulars: for pIC50: CHO cell line transfected with human V1a receptor, [Arg8]-vasopressin at EC50 concentration, read-out: IC50 hV1a; for ratio IC50 hV2/hV1a: selectivity, IC50 hV2 divided by IC50 hV1a.
Chain of human V1a receptor (P37288 whole entry): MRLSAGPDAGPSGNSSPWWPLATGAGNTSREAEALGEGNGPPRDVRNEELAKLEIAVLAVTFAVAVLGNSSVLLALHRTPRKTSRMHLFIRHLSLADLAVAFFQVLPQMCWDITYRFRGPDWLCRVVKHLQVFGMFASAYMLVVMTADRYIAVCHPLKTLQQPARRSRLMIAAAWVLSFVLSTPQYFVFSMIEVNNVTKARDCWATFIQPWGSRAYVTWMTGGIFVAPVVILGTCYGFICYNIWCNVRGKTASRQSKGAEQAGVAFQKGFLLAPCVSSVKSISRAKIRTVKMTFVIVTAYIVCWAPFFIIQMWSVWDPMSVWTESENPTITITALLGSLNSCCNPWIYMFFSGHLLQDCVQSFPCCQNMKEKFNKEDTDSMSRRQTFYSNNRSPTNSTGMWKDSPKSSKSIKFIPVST

Molecules are shown by their SMILES. pIC50: −log10 of the molar value.

Chain of human V2 receptor (P30518 whole entry): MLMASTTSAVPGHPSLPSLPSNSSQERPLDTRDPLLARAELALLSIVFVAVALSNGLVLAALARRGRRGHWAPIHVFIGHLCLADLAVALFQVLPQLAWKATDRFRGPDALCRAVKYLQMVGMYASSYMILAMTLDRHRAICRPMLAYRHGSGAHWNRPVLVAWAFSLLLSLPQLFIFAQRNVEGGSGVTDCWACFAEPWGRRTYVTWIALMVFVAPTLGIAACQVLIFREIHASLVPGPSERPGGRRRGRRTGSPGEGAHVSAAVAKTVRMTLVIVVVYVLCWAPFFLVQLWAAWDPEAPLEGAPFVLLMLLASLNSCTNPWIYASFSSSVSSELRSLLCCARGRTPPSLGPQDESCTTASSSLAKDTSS

As to `CC(C)(C)OC(=O)N1CCC(C(=O)NC(Cn2c(-c3ccc(Cl)cc3)nn(Cc3ncn(-c4ncccc4Cl)n3)c2=O)C(F)(F)F)C1` (stereo not shown) [Example 23, tert-Butyl 3-({3-[3-(4-chlorophenyl)-1-{[1-(3-chloropyridin-2-yl)-1H-1,2,4-triazol-3-yl]methyl}-5-oxo-1,5-dihydro-4H-1,2,4-triazol-4-yl]-1,1,1-trifluoropropan-2-yl}carbamoyl)pyrrolidine-1-carboxylate], the pIC50 was 7.14 at human V2 receptor and 9.00 at human V1a receptor.
`O=C(NC(Cn1c(-c2ccc(Cl)cc2)nn(Cc2ncn(-c3ncccc3Cl)n2)c1=O)C(F)(F)F)C1CCNC1` (stereo not shown) [Example 24, N-{3-[3-(4-Chlorophenyl)-1-{[1-(3-chloropyridin-2-yl)-1H-1,2,4-triazol-3-yl]methyl}-5-oxo-1,5-dihydro-4H-1,2,4-triazol-4-yl]-1,1,1-trifluoropropan-2-yl}pyrrolidine-3-carboxamide]: the pIC50 at human V2 receptor is 6.15. On human V1a receptor, the pIC50 was 8.36 and the “ratio IC50 hV2/hV1a” value worked out at 160.8.
Consider `CC(C)(C)OC(=O)NC1(C(=O)NC(Cn2c(-c3ccc(Cl)cc3)nn(Cc3ncn(-c4ncccc4Cl)n3)c2=O)C(F)(F)F)CCC1` (stereo not shown) [Example 28, tert-Butyl [1-({3-[3-(4-chlorophenyl)-1-{[1-(3-chloropyridin-2-yl)-1H-1,2,4-triazol-3-yl]methyl}-5-oxo-1,5-dihydro-4H-1,2,4-triazol-4-yl]-1,1,1-trifluoropropan-2-yl}carbamoyl)cyclobutyl]-carbamate], for which the results for the pIC50 on human V2 receptor and at human V1a receptor were 7.65 and 8.73, respectively.
On to `O=C(NC(Cn1c(-c2ccc(Cl)cc2)nn(Cc2ncn(-c3ncccc3Cl)n2)c1=O)C(F)(F)F)C1CCS(=O)(=O)C1` (stereo not shown) [Example 30, N-{3-[3-(4-Chlorophenyl)-1-{[1-(3-chloropyridin-2-yl)-1H-1,2,4-triazol-3-yl]methyl}-5-oxo-1,5-dihydro-4H-1,2,4-triazol-4-yl]-1,1,1-trifluoropropan-2-yl}tetrahydrothiophene-3-carboxamide 1,1-dioxide], for which, at human V2 receptor, the negative-log IC50 (pIC50) was 6.67. Besides, on human V1a receptor, the pIC50 is 8.20 and the “ratio IC50 hV2/hV1a” value turned out to be 33.9.
Turning to `O=C(N[C@@H](Cn1c(-c2ccc(Cl)cc2)nn(Cc2ncn(-c3ncccc3Cl)n2)c1=O)C(F)(F)F)C1(C(F)(F)F)CC1` [Example 43], at human V2 receptor, the negative logarithm of the IC50 (pIC50) was 7.24. Moreover, at human V1a receptor, the negative logarithm of the IC50 (pIC50) is 8.85 and the “ratio IC50 hV2/hV1a” value is listed as 40.9.
Turning to `O=C(NC(Cn1c(-c2ccc(Cl)cc2)nn(Cc2ncn(-c3ncccc3Cl)n2)c1=O)C(F)(F)F)C1CCCN1` (stereo not shown) [Example 47, N-{3-[3-(4-Chlorophenyl)-1-{[1-(3-chloropyridin-2-yl)-1H-1,2,4-triazol-3-yl]methyl}-5-oxo-1,5-dihydro-4H-1,2,4-triazol-4-yl]-1,1,1-trifluoropropan-2-yl}-prolinamide], on human V2 receptor, the negative-log IC50 (pIC50) is 7.30. Moreover, at human V1a receptor, the pIC50 was 8.73 and the “ratio IC50 hV2/hV1a” value is on record as 27.0.
`O=C(NC(Cn1c(-c2ccc(Cl)cc2)nn(Cc2ncn(-c3ncccc3Cl)n2)c1=O)C(F)(F)F)[C@@H]1CC(C(F)(F)F)CN1` (stereo partly shown) [Example 50]: the pIC50 on human V2 receptor was 6.82; on human V1a receptor, 8.49. Moreover, at human V1a receptor, the “ratio IC50 hV2/hV1a” value turned out to be 46.9.
For the compound `O=C1NCCC1C(=O)NC(Cn1c(-c2ccc(Cl)cc2)nn(Cc2ncn(-c3ncccc3Cl)n2)c1=O)C(F)(F)F` (stereo not shown) [Example 51, N-{3-[3-(4-Chlorophenyl)-1-{[1-(3-chloropyridin-2-yl)-1H-1,2,4-triazol-3-yl]methyl}-5-oxo-1,5-dihydro-4H-1,2,4-triazol-4-yl]-1,1,1-trifluoropropan-2-yl}-2-oxopyrrolidine-3-carboxamide], the pIC50 on human V2 receptor was 6.78. Besides, at human V1a receptor, the negative logarithm of the IC50 (pIC50) is 8.54 and the “ratio IC50 hV2/hV1a” value came to 57.6.
On to `O=C(NC(Cn1c(-c2ccc(Cl)cc2)nn(Cc2ncn(-c3ncccc3Cl)n2)c1=O)C(F)(F)F)C1CC(F)(F)CN1` (stereo not shown) [Example 53, N-{3-[3-(4-Chlorophenyl)-1-{[1-(3-chloropyridin-2-yl)-1H-1,2,4-triazol-3-yl]methyl}-5-oxo-1,5-dihydro-4H-1,2,4-triazol-4-yl]-1,1,1-trifluoropropan-2-yl}-4,4-difluoro-prolinamide], for which the pIC50 at human V2 receptor was 7.42; at human V1a receptor, 8.80. Moreover, the “ratio IC50 hV2/hV1a” value at human V1a receptor came to 23.8.
As for `CC(C)(C)OC(=O)N1CC(F)(F)C1C(=O)NC(Cn1c(-c2ccc(Cl)cc2)nn(Cc2ncn(-c3ncccc3Cl)n2)c1=O)C(F)(F)F` (stereo not shown) [Example 54, tert-Butyl 2-({3-[3-(4-chlorophenyl)-1-{[1-(3-chloropyridin-2-yl)-1H-1,2,4-triazol-3-yl]methyl}-5-oxo-1,5-dihydro-4H-1,2,4-triazol-4-yl]-1,1,1-trifluoropropan-2-yl}carbamoyl)-3,3-difluoro-azetidine-1-carboxylate], the pIC50 on human V2 receptor is 6.78. In addition, on human V1a receptor, the negative logarithm of the IC50 (pIC50) is 8.41 and the “ratio IC50 hV2/hV1a” value was 42.3.
With `O=C(NC(Cn1c(-c2ccc(Cl)cc2)nn(Cc2ncn(-c3ncccc3Cl)n2)c1=O)C(F)(F)F)C1NCC1(F)F` (stereo not shown) [Example 55, N-{3-[3-(4-Chlorophenyl)-1-{[1-(3-chloropyridin-2-yl)-1H-1,2,4-triazol-3-yl]methyl}-5-oxo-1,5-dihydro-4H-1,2,4-triazol-4-yl]-1,1,1-trifluoropropan-2-yl}-3,3-difluoroazetidine-2-carboxamide], the pIC50 at human V2 receptor was 6.97; on human V1a receptor it was 8.71. Also, at human V1a receptor, the “ratio IC50 hV2/hV1a” value was 54.4.
Take `CC(C)(C)OC(=O)N1CCC1C(=O)NC(Cn1c(-c2ccc(Cl)cc2)nn(Cc2ncn(-c3ncccc3Cl)n2)c1=O)C(F)(F)F` (stereo not shown) [Example 56, tert-Butyl 2-({3-[3-(4-chlorophenyl)-1-{[1-(3-chloropyridin-2-yl)-1H-1,2,4-triazol-3-yl]methyl}-5-oxo-1,5-dihydro-4H-1,2,4-triazol-4-yl]-1,1,1-trifluoropropan-2-yl}carbamoyl)azetidine-1-carboxylate]: the pIC50 at human V2 receptor is 5.99. At human V1a receptor, the negative-log IC50 (pIC50) is 8.09 and the “ratio IC50 hV2/hV1a” value is listed as 126.8.
On to `O=C(NC(Cn1c(-c2ccc(Cl)cc2)nn(Cc2ncn(-c3ncccc3Cl)n2)c1=O)C(F)(F)F)C1CCN1` (stereo not shown) [Example 57, N-{3-[3-(4-Chlorophenyl)-1-{[1-(3-chloropyridin-2-yl)-1H-1,2,4-triazol-3-yl]methyl}-5-oxo-1,5-dihydro-4H-1,2,4-triazol-4-yl]-1,1,1-trifluoropropan-2-yl}azetidine-2-carboxamide], for which the pIC50 at human V2 receptor is 5.70. Further, at human V1a receptor, the negative-log IC50 (pIC50) is 7.50 and the “ratio IC50 hV2/hV1a” value was 62.8.
Regarding `O=C(NC(Cn1c(-c2ccc(Cl)cc2)nn(Cc2ncn(-c3ncccc3C(F)(F)F)n2)c1=O)C(F)(F)F)C1CC1(F)F` (stereo not shown) [Example 66, N-{3-[3-(4-Chlorophenyl)-5-oxo-1-({1-[3-(trifluoromethyl)pyridin-2-yl]-1H-1,2,4-triazol-3-yl}methyl)-1,5-dihydro-4H-1,2,4-triazol-4-yl]-1,1,1-trifluoropropan-2-yl}-2,2-difluorocyclopropane-1-carboxamide], at human V2 receptor, the negative-log IC50 (pIC50) is 6.61. Also, on human V1a receptor, the negative logarithm of the IC50 (pIC50) is 8.27 and the “ratio IC50 hV2/hV1a” value is 45.4.

The term pIC50 denotes the negative decadic logarithm of the IC50, by convention in mol/L.

The values are drawn from patent publication US11149023B2, “Substituted triazole derivatives and uses thereof” (Bayer Pharma Aktiengesellschaft, priority 2017, dated 2021).
